Source: the supplement of paper PMC10307832

How the values were obtained:
Assay in all cases: relative viability (nuclei count vs DMSO), 5 days (fraction); higher = more cells survive
NCI-H727 = tested on: NCI-H727
Outline: (§1)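 Relative viability is defined as nuclei in treated wells over nuclei in vehicle wells. Duplicate plates were run and medians reported. Lung cancer cell lines in 1536-well plates were dosed by pin tool one day after seeding, with one drug or with a fixed anchor-drug dose plus five library-drug doses (not always all listed) in √10 steps, and nuclei were counted after 5 days.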

PC-14 = tested on: PC-14
Outline: as §1

NCI-H1915 = tested on: NCI-H1915
Outline: as §1

HARA = tested on: HARA
Outline: as §1

NCI-H1734 = tested on: NCI-H1734
Outline: as §1

H3255 = tested on: H3255
Outline: as §1

ABC-1 = tested on: ABC-1
Outline: as §1

HCC-15 = tested on: HCC-15
Outline: as §1

LU99A = tested on: LU99A
Outline: as §1

NCI-H1437 = tested on: NCI-H1437
Outline: as §1

NCI-H460 = tested on: NCI-H460
Outline: as §1

NCI-H1666 = tested on: NCI-H1666
Outline: as §1

LC-2-ad = tested on: LC-2-ad
Outline: as §1

NCI-H1944 = tested on: NCI-H1944
Outline: as §1

SW 900 = tested on: SW 900
Outline: as §1

NCI-H1648 = tested on: NCI-H1648
Outline: as §1

COR-L 105 = tested on: COR-L 105
Outline: as §1

RERF-LC-KJ = tested on: RERF-LC-KJ
Outline: as §1

NCI-H650 = tested on: NCI-H650
Outline: as §1

NCI-H2347 = tested on: NCI-H2347
Outline: as §1

HCC-366 = tested on: HCC-366
Outline: as §1

CAL-12T = tested on: CAL-12T
Outline: as §1

NCI-H838 = tested on: NCI-H838
Outline: as §1

`C=C1C(=O)O[C@@H](CCCCCCCC)[C@@H]1C(=O)O` [C-75] + O=C(c1cc(Cc2n[nH]c(=O)c3ccccc23)ccc1F)N1CCN(C(=O)C2CC2)CC1 [Olaparib] (partner 8 µM) showed a relative viability (NCI-H727; first compound 0.08 µM) of 0.69, a relative viability (NCI-H727; first compound 0.253 µM) of 0.865 and a relative viability (NCI-H727; first compound 0.8 µM) of 0.671. It also gave a relative viability (NCI-H727; first compound 2.53 µM) of 0.371, a relative viability (NCI-H727; first compound 8 µM) of 0.636 and a relative viability (PC-14; first compound 0.08 µM) of 0.276. The relative viability (PC-14; first compound 0.253 µM) was 0.257, the relative viability (PC-14; first compound 0.8 µM) was 0.296 and the relative viability (PC-14; first compound 2.53 µM) was 0.252. For the same compound, the relative viability (PC-14; first compound 8 µM) was 0.308, the relative viability (NCI-H1915; first compound 0.08 µM) was 0.243 and the relative viability (NCI-H1915; first compound 0.253 µM) was 0.242. It also gave a relative viability (NCI-H1915; first compound 0.8 µM) of 0.261, a relative viability (NCI-H1915; first compound 2.53 µM) of 0.262 and a relative viability (NCI-H1915; first compound 8 µM) of 0.257. For the same compound, the relative viability (HARA; first compound 0.08 µM) was 0.76, the relative viability (HARA; first compound 0.253 µM) was 0.749 and the relative viability (HARA; first compound 0.8 µM) was 1.04. It also gave a relative viability (HARA; first compound 2.53 µM) of 0.803, a relative viability (HARA; first compound 8 µM) of 0.715 and a relative viability (NCI-H1734; first compound 0.08 µM) of 0.546. For the same compound, the relative viability (NCI-H1734; first compound 0.253 µM) was 0.569, the relative viability (NCI-H1734; first compound 0.8 µM) was 0.277 and the relative viability (NCI-H1734; first compound 2.53 µM) was 0.506. It also gave a relative viability (NCI-H1734; first compound 8 µM) of 0.608, a relative viability (H3255; first compound 0.08 µM) of 0.629 and a relative viability (H3255; first compound 0.253 µM) of 0.581. For the same compound, the relative viability (H3255; first compound 0.8 µM) was 0.583, the relative viability (H3255; first compound 2.53 µM) was 0.537 and the relative viability (H3255; first compound 8 µM) was 0.573. For the same compound, the relative viability (ABC-1; first compound 0.08 µM) was 0.862, the relative viability (ABC-1; first compound 0.253 µM) was 0.703 and the relative viability (ABC-1; first compound 0.8 µM) was 0.811. The relative viability (ABC-1; first compound 2.53 µM) was 0.719, the relative viability (ABC-1; first compound 8 µM) was 0.792 and the relative viability (HCC-15; first compound 0.08 µM) was 0.686. It also gave a relative viability (HCC-15; first compound 0.253 µM) of 0.752, a relative viability (HCC-15; first compound 0.8 µM) of 0.672 and a relative viability (HCC-15; first compound 2.53 µM) of 0.612. It also gave a relative viability (HCC-15; first compound 8 µM) of 0.785, a relative viability (LU99A; first compound 0.08 µM) of 0.255 and a relative viability (LU99A; first compound 0.253 µM) of 0.245. For the same compound, the relative viability (LU99A; first compound 0.8 µM) was 0.25, the relative viability (LU99A; first compound 2.53 µM) was 0.245 and the relative viability (LU99A; first compound 8 µM) was 0.205. It also gave a relative viability (NCI-H1437; first compound 0.08 µM) of 0.614, a relative viability (NCI-H1437; first compound 0.253 µM) of 0.684 and a relative viability (NCI-H1437; first compound 0.8 µM) of 0.642. The relative viability (NCI-H1437; first compound 8 µM) was 0.648, the relative viability (NCI-H460; first compound 0.08 µM) was 0.413 and the relative viability (NCI-H460; first compound 0.253 µM) was 0.503. The relative viability (NCI-H460; first compound 0.8 µM) was 0.366, the relative viability (NCI-H460; first compound 2.53 µM) was 0.356 and the relative viability (NCI-H460; first compound 8 µM) was 0.377. The relative viability (NCI-H1666; first compound 0.08 µM) was 0.681, the relative viability (NCI-H1666; first compound 0.253 µM) was 0.79 and the relative viability (NCI-H1666; first compound 0.8 µM) was 0.678. It also gave a relative viability (NCI-H1666; first compound 8 µM) of 0.653, a relative viability (LC-2-ad; first compound 0.08 µM) of 0.683 and a relative viability (LC-2-ad; first compound 0.253 µM) of 0.751. It also gave a relative viability (LC-2-ad; first compound 0.8 µM) of 0.343, a relative viability (LC-2-ad; first compound 2.53 µM) of 0.596 and a relative viability (LC-2-ad; first compound 8 µM) of 0.668. For the same compound, the relative viability (NCI-H1944; first compound 0.08 µM) was 0.381, the relative viability (NCI-H1944; first compound 0.253 µM) was 0.419 and the relative viability (NCI-H1944; first compound 0.8 µM) was 0.353. The relative viability (NCI-H1944; first compound 2.53 µM) was 0.392, the relative viability (NCI-H1944; first compound 8 µM) was 0.428 and the relative viability (SW 900; first compound 0.08 µM) was 0.923. The relative viability (SW 900; first compound 0.253 µM) was 0.945, the relative viability (SW 900; first compound 0.8 µM) was 1.05 and the relative viability (SW 900; first compound 2.53 µM) was 0.803. For the same compound, the relative viability (SW 900; first compound 8 µM) was 0.977, the relative viability (NCI-H1648; first compound 0.08 µM) was 0.921 and the relative viability (NCI-H1648; first compound 0.253 µM) was 1.3. It also gave a relative viability (NCI-H1648; first compound 0.8 µM) of 0.597, a relative viability (NCI-H1648; first compound 8 µM) of 1.03 and a relative viability (COR-L 105; first compound 0.08 µM) of 0.719. It also gave a relative viability (COR-L 105; first compound 0.253 µM) of 0.75, a relative viability (COR-L 105; first compound 0.8 µM) of 0.668 and a relative viability (COR-L 105; first compound 2.53 µM) of 0.62. The relative viability (COR-L 105; first compound 8 µM) was 0.523, the relative viability (RERF-LC-KJ; first compound 0.08 µM) was 1.02 and the relative viability (RERF-LC-KJ; first compound 0.253 µM) was 0.966. The relative viability (RERF-LC-KJ; first compound 0.8 µM) was 0.897, the relative viability (RERF-LC-KJ; first compound 2.53 µM) was 0.729 and the relative viability (RERF-LC-KJ; first compound 8 µM) was 0.797. It also gave a relative viability (NCI-H650; first compound 0.08 µM) of 0.397, a relative viability (NCI-H650; first compound 0.253 µM) of 0.438 and a relative viability (NCI-H650; first compound 0.8 µM) of 0.457. The relative viability (NCI-H650; first compound 2.53 µM) was 0.397, the relative viability (NCI-H650; first compound 8 µM) was 0.4 and the relative viability (NCI-H2347; first compound 0.08 µM) was 0.552. The relative viability (NCI-H2347; first compound 0.253 µM) was 0.514, the relative viability (NCI-H2347; first compound 0.8 µM) was 0.532 and the relative viability (NCI-H2347; first compound 2.53 µM) was 0.539. It also gave a relative viability (NCI-H2347; first compound 8 µM) of 0.614, a relative viability (HCC-366; first compound 0.08 µM) of 0.349 and a relative viability (HCC-366; first compound 0.253 µM) of 0.49. For the same compound, the relative viability (HCC-366; first compound 0.8 µM) was 0.341, the relative viability (HCC-366; first compound 2.53 µM) was 0.356 and the relative viability (HCC-366; first compound 8 µM) was 0.347. The relative viability (CAL-12T; first compound 0.08 µM) was 0.774, the relative viability (CAL-12T; first compound 0.253 µM) was 0.796 and the relative viability (CAL-12T; first compound 0.8 µM) was 0.788. The relative viability (CAL-12T; first compound 2.53 µM) was 0.766, the relative viability (CAL-12T; first compound 8 µM) was 0.793 and the relative viability (NCI-H838; first compound 0.08 µM) was 0.778. For the same compound, the relative viability (NCI-H838; first compound 0.253 µM) was 0.757, the relative viability (NCI-H838; first compound 0.8 µM) was 0.738 and the relative viability (NCI-H838; first compound 2.53 µM) was 0.725. It also gave a relative viability (NCI-H838; first compound 8 µM) of 0.654.
